# From PMC10746543, “Design principles for cyclin K molecular glue degraders” (Nature Chemical Biology, 2023)
# Values joined by “and” are separate entries in the source; they are usually repeats but may differ in a detail not shown here. Equal entries are not always repeated. Where two headings read alike, the source gives them in different places.
# Legend:
# CDK12–cyclin K and DDB1 = biological target: T1, CDK12–cyclin K and DDB1 (Homo sapiens, UniProt Q16531+Q9NYV4, K965R); test: TR-FRET ternary complex formation assay (compound titration); type: binding; details: for TR-FRET signal at compound concentration 0.468 nM / TR-FRET signal at compound concentration 2.16 nM / TR-FRET signal at compound concentration 3.6 nM / TR-FRET signal at compound concentration 7.92001 nM / TR-FRET signal at compound concentration 15.84 nM / TR-FRET signal at compound concentration 30.96 nM / TR-FRET signal at compound concentration 62.6401 nM / TR-FRET signal at compound concentration 125.28 nM / TR-FRET signal at compound concentration 244.8 nM / TR-FRET signal at compound concentration 993.601 nM / TR-FRET signal at compound concentration 2001.6 nM: raw replicate titration data
# T1 construct: His6–CDK12 (a.a. 713–1,052); full-length or beta-propeller B domain deletion (ΔBPB: a.a. 396–705 deleted) constructs of His6–DDB1ΔBPB, StrepII–Avi–DDB1, or His6–Spy–DDB1; made in house; host or cells: Trichoplusia ni High Five insect cells (baculovirus)
# Summary of the method: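 Signal was the ratio of 520 nm to 490 nm fluorescence, measured after a 70 μs delay that reduced background.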
# HEK293T cells = test: Drug sensitivity assay (CellTiter-Glo viability) with or without MLN4924 pretreatment; type: cell-based, human; details: Supplementary Table 2; for EC50: Homo sapiens, HEK-293T, HEK293T viability, 72 h, compound alone, read-out: Cellular assays EC50; for Toxicity rescue: MLN4924-mediated cytotoxicity rescue, 10 µM used where n.d.
# Summary of the method: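 HEK293T–Cas9, 0.15 × 10^6 ml^−1; pretreat DMSO vs 100 nM MLN4924; drugs dispensed after 2 h; 3 d exposure; CellTiter-Glo; viability vs DMSO control.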
# CDK12 = biological target: T2, CDK12 (Homo sapiens, UniProt Q16531+Q9NYV4); test: Label-free quantitative mass spectrometry in MDA-MB-231 cells, CDK12; type: cell-based; details: for CDK12 peptide count: label-free quantitative MS, replicate values; for CDK12 peptide count (DMSO-normalised): normalised to DMSO = 1, replicate values
# T2 construct: endogenous in cells; host or cells: MDA-MB-231
# Method: (§1) MDA-MB-231 cells were treated with DMSO or a cyclin K degrader compound at 1 µM for 5 h. Cells were collected by centrifugation and washed with phosphate-buffered saline before snap freezing in liquid nitrogen. Cells were lysed by addition of lysis buffer (8 M urea, 50 mM NaCl, 50 mM 4-(2-hydroxyethyl)-1-piperazineethanesulfonic acid (EPPS) pH 8.5, and protease and phosphatase inhibitors) and homogenization by bead beating (BioSpec) for three repeats of 30 s at 2,400 rpm. Bradford assay was used to determine the final protein concentration in the clarified cell lysate. Then 50 µg of protein for each sample was reduced, alkylated and precipitated using methanol/chloroform as previously described, and the resulting washed precipitated protein was allowed to air dry. Precipitated protein was resuspended in 4 M urea, 50 mM HEPES pH 7.4, followed by dilution to 1 M urea with the addition of 200 mM EPPS, pH 8. Proteins were first digested with LysC (1:50; enzyme:protein) for 12 h at room temperature. The LysC digestion was diluted to 0.5 M urea with 200 mM EPPS pH 8 followed by digestion with trypsin (1:50; enzyme:protein) for 6 h at 37 °C. Sample digests were acidified with formic acid to a pH of 2–3 before desalting using C18 solid phase extraction plates (SOLA, Thermo Fisher Scientific). Desalted peptides were dried in a vacuum-centrifuged and reconstituted in 0.1% formic acid for liquid chromatography–mass spectrometry analysis.
# (§2) Data were collected using a TimsTOF Pro2 (Bruker Daltonics) coupled to a nanoElute LC pump (Bruker Daltonics) via a CaptiveSpray nano-electrospray source. Peptides were separated on a reversed-phase C18 column (25 cm × 75 µm inner diameter, […], IonOpticks) containing an integrated captive spray emitter. Peptides were separated using a 50 min gradient of 2–30% buffer B (acetonitrile in 0.1% formic acid) with a flow rate of 250 nl min^−1 and column temperature maintained at 50 °C.
# (§3) Data-dependent acquisition (DDA) was performed in Parallel Accumulation-Serial Fragmentation (PASEF) mode to determine effective ion mobility windows for downstream diaPASEF data collection. The ddaPASEF parameters included: 100% duty cycle using accumulation and ramp times of 50 ms each, one Trapped Ion Mobility Spectrometry(TIMS)-MS scan and ten PASEF ramps per acquisition cycle. The TIMS-MS survey scan was acquired between 100 m/z and 1,700 m/z and 1/K0 of 0.7–1.3 V s cm^−2. Precursors with one to five charges were selected, and those that reached an intensity threshold of 20,000 arbitrary units were actively excluded for 0.4 min. The quadrupole isolation width was set to 2 m/z for m/z < 700 and 3 m/z for m/z > 800, with the m/z between 700 m/z and 800 m/z being interpolated linearly. […] To perform diaPASEF, the precursor distribution in the DDA m/z-ion mobility plane was used to design an acquisition scheme for data-independent acquisition (DIA) data collection that included two windows in each 50 ms diaPASEF scan. Data were acquired using 16 of these 25 Da precursor double window scans (creating 32 windows) that covered the diagonal scan line for doubly and triply charged precursors, with singly charged precursors able to be excluded by their position in the m/z-ion mobility plane. These precursor isolation windows were defined between 400 m/z and 1,200 m/z and 1/K0 of 0.7–1.3 V s cm^−2.
# (§4) DirectDIA mode includes first extracting the DIA data into a collection of MS2 spectra which are searched using Spectronaut’s Pulsar search engine. The search results are then used to generate a spectral library which is then employed for the targeted analysis of the DIA data. MS/MS spectra were searched against a Swissprot human database (January 2021). Database search criteria largely followed the default settings for directDIA including: tryptic with two missed cleavages, fixed carbomidomethylation of cysteine, and variable oxidation of methionine and acetylation of protein N-termini and precursor Q-value (FDR) cut-off of 0.01. […]
# CDK13 = biological target: T3, CDK13 (Homo sapiens, UniProt Q14004+Q16531); test: Label-free quantitative mass spectrometry in MDA-MB-231 cells, CDK13; type: cell-based; details: for CDK13 peptide count: label-free quantitative MS, replicate values; for CDK13 peptide count (DMSO-normalised): normalised to DMSO = 1, replicate values
# T3 construct: endogenous in cells; host or cells: MDA-MB-231
# Method: as §1, §2, §3, §4
# [1] = compound concentration 0.468 nM
# [2] = compound concentration 7.92001 nM
# [3] = compound concentration 15.84 nM
# [4] = compound concentration 30.96 nM
# [5] = compound concentration 62.6401 nM
# [6] = compound concentration 125.28 nM
# [7] = compound concentration 244.8 nM
# [8] = compound concentration 993.601 nM
# [9] = compound concentration 2001.6 nM
# [10] = in vitro complex formation, 50 nM CDK12–cyclin K, 100 nM DDB1, text and figures, read-out: TR-FRET EC50
# [11] = sheet MOESM7, read-out: log TR-FRET EC50 (converted)
# [12] = source data sheet correlations, read-out: TR-FRET EC50
# T2 sequence (Q9NYV4 whole entry): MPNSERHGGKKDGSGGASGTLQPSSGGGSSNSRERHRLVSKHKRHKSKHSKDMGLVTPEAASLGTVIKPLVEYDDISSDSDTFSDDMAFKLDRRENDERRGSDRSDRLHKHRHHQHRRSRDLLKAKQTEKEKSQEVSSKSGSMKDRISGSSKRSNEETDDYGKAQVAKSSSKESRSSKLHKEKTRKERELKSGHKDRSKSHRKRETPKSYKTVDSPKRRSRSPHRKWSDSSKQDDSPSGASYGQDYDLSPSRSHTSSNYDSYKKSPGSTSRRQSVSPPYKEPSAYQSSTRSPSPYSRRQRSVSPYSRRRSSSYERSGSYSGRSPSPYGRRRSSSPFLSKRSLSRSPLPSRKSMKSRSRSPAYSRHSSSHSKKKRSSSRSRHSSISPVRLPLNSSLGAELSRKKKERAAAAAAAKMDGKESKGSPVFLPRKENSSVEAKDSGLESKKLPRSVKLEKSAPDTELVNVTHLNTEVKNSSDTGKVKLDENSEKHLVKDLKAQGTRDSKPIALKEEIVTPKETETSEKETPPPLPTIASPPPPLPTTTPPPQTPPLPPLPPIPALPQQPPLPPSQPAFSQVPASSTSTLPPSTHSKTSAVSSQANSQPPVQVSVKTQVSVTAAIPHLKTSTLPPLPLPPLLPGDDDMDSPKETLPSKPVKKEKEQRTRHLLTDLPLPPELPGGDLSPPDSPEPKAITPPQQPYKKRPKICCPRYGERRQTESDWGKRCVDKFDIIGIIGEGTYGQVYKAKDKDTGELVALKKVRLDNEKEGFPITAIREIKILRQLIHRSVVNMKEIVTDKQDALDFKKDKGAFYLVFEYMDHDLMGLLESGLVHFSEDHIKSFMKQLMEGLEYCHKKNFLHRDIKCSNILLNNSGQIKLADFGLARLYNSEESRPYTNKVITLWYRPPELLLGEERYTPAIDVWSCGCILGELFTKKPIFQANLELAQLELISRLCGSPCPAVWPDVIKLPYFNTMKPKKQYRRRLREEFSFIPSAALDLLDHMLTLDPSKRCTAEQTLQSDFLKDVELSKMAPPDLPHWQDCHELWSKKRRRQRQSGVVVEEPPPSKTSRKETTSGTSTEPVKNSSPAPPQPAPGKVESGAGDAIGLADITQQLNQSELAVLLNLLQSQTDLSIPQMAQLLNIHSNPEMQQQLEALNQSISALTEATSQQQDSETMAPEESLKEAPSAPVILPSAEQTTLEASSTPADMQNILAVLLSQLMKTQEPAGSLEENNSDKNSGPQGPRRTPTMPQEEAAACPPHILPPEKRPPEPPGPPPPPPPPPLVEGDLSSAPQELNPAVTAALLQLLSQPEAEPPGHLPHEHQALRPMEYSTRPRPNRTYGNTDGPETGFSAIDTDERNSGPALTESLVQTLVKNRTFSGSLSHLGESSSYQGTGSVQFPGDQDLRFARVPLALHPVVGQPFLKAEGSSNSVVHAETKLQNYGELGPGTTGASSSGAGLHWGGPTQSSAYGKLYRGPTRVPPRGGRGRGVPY
# T2 sequence (O75909 whole entry partner): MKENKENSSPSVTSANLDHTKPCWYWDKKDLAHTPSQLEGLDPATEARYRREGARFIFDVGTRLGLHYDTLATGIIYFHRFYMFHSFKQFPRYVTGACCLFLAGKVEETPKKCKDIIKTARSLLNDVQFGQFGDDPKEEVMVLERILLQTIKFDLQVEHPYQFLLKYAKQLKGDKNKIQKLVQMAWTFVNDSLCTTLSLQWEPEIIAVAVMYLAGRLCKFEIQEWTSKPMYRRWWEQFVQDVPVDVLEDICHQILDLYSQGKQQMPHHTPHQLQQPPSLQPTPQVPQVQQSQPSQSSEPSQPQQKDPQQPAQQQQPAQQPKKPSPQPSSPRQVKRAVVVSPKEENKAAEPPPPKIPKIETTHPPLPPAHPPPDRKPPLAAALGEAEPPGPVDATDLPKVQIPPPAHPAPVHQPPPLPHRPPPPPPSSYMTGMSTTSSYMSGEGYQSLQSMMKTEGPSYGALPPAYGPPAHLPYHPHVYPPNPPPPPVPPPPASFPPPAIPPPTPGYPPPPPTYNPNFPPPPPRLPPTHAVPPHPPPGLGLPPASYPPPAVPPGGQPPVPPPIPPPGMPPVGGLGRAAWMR
# T2 sequence (Q16531 2-1140 limits assumed): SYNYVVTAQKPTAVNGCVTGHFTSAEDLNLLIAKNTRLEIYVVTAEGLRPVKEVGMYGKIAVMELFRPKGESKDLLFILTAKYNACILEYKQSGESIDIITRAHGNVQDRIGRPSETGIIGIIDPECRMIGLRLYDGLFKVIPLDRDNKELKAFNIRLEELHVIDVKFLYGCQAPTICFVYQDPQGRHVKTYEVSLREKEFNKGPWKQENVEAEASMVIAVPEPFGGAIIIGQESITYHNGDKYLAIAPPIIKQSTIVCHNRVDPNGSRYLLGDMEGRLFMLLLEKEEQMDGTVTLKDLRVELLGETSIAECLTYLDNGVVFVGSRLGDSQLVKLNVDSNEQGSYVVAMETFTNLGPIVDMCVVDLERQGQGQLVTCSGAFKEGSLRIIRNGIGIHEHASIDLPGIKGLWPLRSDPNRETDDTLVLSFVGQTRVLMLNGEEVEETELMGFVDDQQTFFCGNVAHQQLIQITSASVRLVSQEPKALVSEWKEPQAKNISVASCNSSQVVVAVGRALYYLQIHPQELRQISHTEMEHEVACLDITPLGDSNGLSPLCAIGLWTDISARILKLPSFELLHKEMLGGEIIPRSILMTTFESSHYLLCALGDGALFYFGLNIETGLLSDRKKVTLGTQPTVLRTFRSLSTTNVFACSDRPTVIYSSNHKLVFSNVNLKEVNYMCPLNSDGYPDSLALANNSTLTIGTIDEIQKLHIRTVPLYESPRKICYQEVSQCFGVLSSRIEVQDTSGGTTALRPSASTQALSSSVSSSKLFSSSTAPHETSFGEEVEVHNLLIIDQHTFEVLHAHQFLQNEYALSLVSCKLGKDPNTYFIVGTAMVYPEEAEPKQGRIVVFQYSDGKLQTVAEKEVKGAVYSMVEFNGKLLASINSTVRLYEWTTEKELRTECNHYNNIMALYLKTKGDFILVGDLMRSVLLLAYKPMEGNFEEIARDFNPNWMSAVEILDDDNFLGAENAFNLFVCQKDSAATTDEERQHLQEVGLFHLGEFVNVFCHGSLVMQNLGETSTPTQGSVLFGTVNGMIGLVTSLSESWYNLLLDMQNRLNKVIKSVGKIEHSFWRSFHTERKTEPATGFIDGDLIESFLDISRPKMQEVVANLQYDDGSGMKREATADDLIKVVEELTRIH
# T3 sequence (Q14004 whole entry): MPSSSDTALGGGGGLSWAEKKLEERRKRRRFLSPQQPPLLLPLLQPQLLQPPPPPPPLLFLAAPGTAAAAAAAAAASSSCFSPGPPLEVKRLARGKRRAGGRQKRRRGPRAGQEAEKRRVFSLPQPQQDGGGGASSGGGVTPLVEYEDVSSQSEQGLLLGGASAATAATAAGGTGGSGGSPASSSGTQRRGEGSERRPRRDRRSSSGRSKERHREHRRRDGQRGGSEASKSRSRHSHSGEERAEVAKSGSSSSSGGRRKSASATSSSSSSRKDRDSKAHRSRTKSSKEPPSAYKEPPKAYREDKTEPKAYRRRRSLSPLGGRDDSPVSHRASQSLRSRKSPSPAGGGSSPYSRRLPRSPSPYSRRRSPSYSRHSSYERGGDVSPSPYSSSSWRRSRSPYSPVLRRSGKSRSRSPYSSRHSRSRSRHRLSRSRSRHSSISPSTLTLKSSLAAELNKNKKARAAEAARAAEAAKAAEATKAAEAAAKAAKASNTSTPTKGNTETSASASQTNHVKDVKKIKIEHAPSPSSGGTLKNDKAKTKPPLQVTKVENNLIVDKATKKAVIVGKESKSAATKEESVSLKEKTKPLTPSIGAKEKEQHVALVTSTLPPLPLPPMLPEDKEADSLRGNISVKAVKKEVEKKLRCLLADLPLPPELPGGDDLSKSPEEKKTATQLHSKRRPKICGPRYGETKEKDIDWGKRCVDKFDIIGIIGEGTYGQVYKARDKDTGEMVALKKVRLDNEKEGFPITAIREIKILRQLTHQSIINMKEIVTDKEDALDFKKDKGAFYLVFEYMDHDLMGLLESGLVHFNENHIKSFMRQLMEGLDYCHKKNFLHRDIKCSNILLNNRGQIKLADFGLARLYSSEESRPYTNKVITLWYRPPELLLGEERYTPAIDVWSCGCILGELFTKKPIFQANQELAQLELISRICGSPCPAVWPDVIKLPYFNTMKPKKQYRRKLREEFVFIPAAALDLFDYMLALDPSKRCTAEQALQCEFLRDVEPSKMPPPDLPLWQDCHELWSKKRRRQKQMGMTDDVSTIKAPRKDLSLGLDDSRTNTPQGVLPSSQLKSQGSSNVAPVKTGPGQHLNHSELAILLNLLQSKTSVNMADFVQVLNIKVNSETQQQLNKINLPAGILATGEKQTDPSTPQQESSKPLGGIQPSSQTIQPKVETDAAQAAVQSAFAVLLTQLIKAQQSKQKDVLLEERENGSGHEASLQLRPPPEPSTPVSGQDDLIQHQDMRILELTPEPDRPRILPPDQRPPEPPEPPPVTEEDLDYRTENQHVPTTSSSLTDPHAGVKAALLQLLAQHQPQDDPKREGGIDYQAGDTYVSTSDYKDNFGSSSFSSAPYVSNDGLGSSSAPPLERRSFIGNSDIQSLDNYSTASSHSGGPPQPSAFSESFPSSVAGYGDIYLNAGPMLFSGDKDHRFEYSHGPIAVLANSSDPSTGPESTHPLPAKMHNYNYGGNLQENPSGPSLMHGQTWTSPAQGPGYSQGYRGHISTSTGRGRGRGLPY
# T3 sequence (O75909 whole entry partner): as the sequence (O75909 whole entry partner) above
# T3 sequence (Q16531 2-1140 limits assumed): as the sequence (Q16531 2-1140 limits assumed) above
Structure (SMILES),TR-FRET signal at compound concentration 0.468 nM (CDK12–cyclin K and DDB1; [1]),TR-FRET signal at compound concentration 2.16 nM (CDK12–cyclin K and DDB1; compound concentration 2.16 nM),TR-FRET signal at compound concentration 3.6 nM (CDK12–cyclin K and DDB1; compound concentration 3.6 nM),TR-FRET signal at compound concentration 7.92001 nM (CDK12–cyclin K and DDB1; [2]),TR-FRET signal at compound concentration 15.84 nM (CDK12–cyclin K and DDB1; [3]),TR-FRET signal at compound concentration 30.96 nM (CDK12–cyclin K and DDB1; [4]),TR-FRET signal at compound concentration 62.6401 nM (CDK12–cyclin K and DDB1; [5]),TR-FRET signal at compound concentration 125.28 nM (CDK12–cyclin K and DDB1; [6]),TR-FRET signal at compound concentration 244.8 nM (CDK12–cyclin K and DDB1; [7]),TR-FRET signal at compound concentration 993.601 nM (CDK12–cyclin K and DDB1; [8]),TR-FRET signal at compound concentration 2001.6 nM (CDK12–cyclin K and DDB1; [9]),EC50 (CDK12–cyclin K and DDB1; [10]) [nM],EC50 (CDK12–cyclin K and DDB1; [11]) [nM],EC50 (CDK12–cyclin K and DDB1; [12]) [nM],EC50 (HEK293T cells) [nM],Toxicity rescue (HEK293T cells) [%],CDK12 peptide count (CDK12),CDK12 peptide count (DMSO-normalised) (CDK12),CDK13 peptide count (CDK13),CDK13 peptide count (DMSO-normalised) (CDK13),other results
CC[C@H](CO)Nc1nc(NCc2nc3cc(Cl)c(Cl)cc3[nH]2)c2ncn(C(C)C)c2n1 [DS17],0.2691 and 0.2681 and 0.2563 and 0.2452,0.3644 and 0.3794 and 0.3582 and 0.3855,0.5749 and 0.6382 and 0.6238 and 0.6481,1.103 and 1.253 and 1.275 and 1.336,2.342 and 2.592 and 2.673 and 2.949,3.985 and 4.064 and 4.264 and 4.269,4.135 and 4.141 and 4.254 and 4.343,4.238 and 4.311 and 4.291 and 4.347,4.1978 and 4.255 and 4.25 and 4.345,4.229 and 4.264 and 4.321 and 4.299,4.223 and 4.116 and 4.3288 and 4.427,13 ± 0.3,13.2,13.2,93,53,546.795 and 667.348,0.6075 and 0.6893,156.014 and 130.628,0.2321 and 0.2007,–
Cc1cccc(Nc2nc(CC(=O)Nc3ncc(C)s3)cs2)n1 [HQ461],–,–,–,–,–,–,–,–,–,–,–,43 ± 13,42.7,42.7,1300,159,703.981 and 744.171,0.7821 and 0.7686,467.381 and 369.821,0.6953 and 0.5683,TR-FRET signal (CDK12–cyclin K and DDB1; [1]): 0.1979 and 0.1985 and 0.1957; TR-FRET signal (CDK12–cyclin K and DDB1; compound concentration 2.16 nM): 0.2749 and 0.2453 and 0.2785; TR-FRET signal (CDK12–cyclin K and DDB1; compound concentration 3.6 nM): 0.4419 and 0.4117 and 0.4333 and 0.5417 and 0.5175; TR-FRET signal (CDK12–cyclin K and DDB1; [2]): 0.7305 and 0.6786 and 0.7304; TR-FRET signal (CDK12–cyclin K and DDB1; [3]): 1.213 and 1.144 and 1.137 and 1.215 and 1.133; TR-FRET signal (CDK12–cyclin K and DDB1; [4]): 1.762 and 1.75 and 1.847; TR-FRET signal (CDK12–cyclin K and DDB1; [5]): 2.4486 and 2.52 and 2.516 and 2.475 and 2.32; TR-FRET signal (CDK12–cyclin K and DDB1; [6]): 3.077 and 3.1244 and 3.038; TR-FRET signal (CDK12–cyclin K and DDB1; [7]): 3.496 and 3.492 and 3.484 and 3.752 and 3.554; TR-FRET signal (CDK12–cyclin K and DDB1; [8]): 3.886 and 3.922 and 3.8902 and 4.115 and 3.832; TR-FRET signal (CDK12–cyclin K and DDB1; [9]): 3.927 and 3.936 and 3.967 and 4.085 and 3.674
Cn1cc(-n2cnc3c(NCc4nc5cc(Cl)c(Cl)cc5[nH]4)nc(N4CCOCC4)nc32)cn1 [SR-4835],0.24 and 0.2487 and 0.176 and 0.1833 and 0.1905 and 0.1902,0.2823 and 0.3111 and 0.2192 and 0.2275 and 0.225 and 0.234,0.3779 and 0.4354 and 0.3063 and 0.3176 and 0.3203 and 0.3168,0.6106 and 0.7496 and 0.4912 and 0.5419 and 0.5567 and 0.5439,1.0796 and 1.304 and 0.9239 and 1.0376 and 1.022 and 1.028,1.682 and 1.792 and 1.613 and 1.69 and 1.622 and 1.648,1.888 and 1.962 and 1.877 and 1.886 and 1.857 and 1.865,1.977 and 2.1 and 1.914 and 1.988 and 1.925 and 1.931,2.037 and 2.154 and 1.951 and 1.963 and 1.955 and 1.942,2.0169 and 2.142 and 1.9225 and 1.946 and 1.977 and 1.949,2.032 and 2.062 and 1.95 and 1.938 and 1.928 and 1.943,–,–,–,42,645,613.534 and 654.471,0.6817 and 0.676,281.229 and 215.265,0.4184 and 0.3308,TR-FRET signal (CDK12–cyclin K and DDB1; [1]): 0.24 and 0.2487 and 0.176 and 0.1833 and 0.1905 and 0.1902; TR-FRET signal (CDK12–cyclin K and DDB1; compound concentration 2.16 nM): 0.2823 and 0.3111 and 0.2192 and 0.2275 and 0.225 and 0.234; TR-FRET signal (CDK12–cyclin K and DDB1; compound concentration 3.6 nM): 0.3779 and 0.4354 and 0.3063 and 0.3176 and 0.3203 and 0.3168; TR-FRET signal (CDK12–cyclin K and DDB1; [2]): 0.6106 and 0.7496 and 0.4912 and 0.5419 and 0.5567 and 0.5439; TR-FRET signal (CDK12–cyclin K and DDB1; [3]): 1.0796 and 1.304 and 0.9239 and 1.0376 and 1.022 and 1.028; TR-FRET signal (CDK12–cyclin K and DDB1; [4]): 1.682 and 1.792 and 1.613 and 1.69 and 1.622 and 1.648; TR-FRET signal (CDK12–cyclin K and DDB1; [5]): 1.888 and 1.962 and 1.877 and 1.886 and 1.857 and 1.865; TR-FRET signal (CDK12–cyclin K and DDB1; [6]): 1.977 and 2.1 and 1.914 and 1.988 and 1.925 and 1.931; TR-FRET signal (CDK12–cyclin K and DDB1; [7]): 2.037 and 2.154 and 1.951 and 1.963 and 1.955 and 1.942; TR-FRET signal (CDK12–cyclin K and DDB1; [8]): 2.0169 and 2.142 and 1.9225 and 1.946 and 1.977 and 1.949; TR-FRET signal (CDK12–cyclin K and DDB1; [9]): 2.032 and 2.062 and 1.95 and 1.938 and 1.928 and 1.943
